Reference: patent publication US20260007758A1, “SO[…]-2 RECEPTOR (SST2R) NON-PEPTIDE DRUG CONJUGATES AND USES THEREOF” (Crinetics Pharmaceuticals, Inc., priority 2024, published 2026)
pEC50: −log10 of the molar value. *1 amine or outer side, *2 acyl side, *3 side chain or, on linkers, in order; H or OH if unused. Where a SMILES comes first, the peptide text is derived from it. [ ]: non-standard residue; d: D form. The star is where a group is joined. X3 = Cc1cc(F)cc(-c2cnc(NCCNC(=O)CCOCCOCCOCCOCCC(=O)*)c(-c3nc4ccc(Cl)cc4[nH]3)c2N2CCC(N)CC2)c1; X4 = Cc1cc(F)cc(-c2cnc(NCCNC(=O)CCOCCC(=O)*)c(-c3nc4ccc(Cl)cc4[nH]3)c2N2CCC(N)CC2)c1; X1 = Cc1cc(F)cc(-c2cnc(*)c(-c3nc4ccc(Cl)cc4[nH]3)c2N2CCC(N)CC2)c1; Dolaproine = CO[C@@H]([C@@H]1CCCN1)[C@@H](C)C(=O)O; Dil = CC[C@H](C)[C@H](NC)[C@@H](CC(=O)O)OC; PABC = O=C(OCc1ccc(N[*:1])cc1)[*:2]; X2 = C[C@@H](N*)[C@@H](O)c1ccccc1; Cit = NC(=O)NCCC[C@H](N)C(=O)O; PEG4 = NCCOCCOCCOCCOCCC(=O)O; NMeV = CN[C@H](C(=O)O)C(C)C; PEG1 = NCCOCCC(=O)O; Ahx = NCCCCCC(=O)O; βAla = NCCC(=O)O

Experiments:
Assay type in all cases: cell-based
[1] = test system: NCI-H524 human small cell lung cancer cells; assay: H524 assay: inhibition of cell proliferation (CellTiter Glo); conditions: 2 h treatment, washout, additional 70 h incubation
Method in brief: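 Proliferation was measured by CellTiter Glo 70 h after a washout that followed a 2 h pulse of NDC. Doses were an 11-point, two-fold dilution series from 1 uM. IC50 was fitted with a four-parameter model to luminescence-based % inhibition relative to control cells.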

[2] = target: T1, human somatostatin receptor subtype 2 (Homo sapiens, UniProt P30874); assay: Functional assay for SSTR2 agonists (HTRF cAMP); conditions: CHO-K1 cells stably expressing human SST2; NKH477-stimulated cAMP; 20 min at 37 C; read-out: hSST2 cAMP Avg EC50
T1 construct: expressed in transfected cells
Method in brief: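 Agonist activity read as fall in intracellular cAMP: HTRF 665/620 nm ratio regressed to a cAMP standard curve, EC50 fitted. Stable human SSTR2 CHO-K1 cells exposed 20 min at 37 °C to compound, final concentrations typically 0-10,000 nM.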

SST2 = target: T2, SST2 (Homo sapiens, UniProt P30874); assay: PathHunter CHO-K1 SST2 Internalization Assay; conditions: PathHunter CHO-K1 SST2 cells; 90 min at 37 C; luminescence; read-out: Internalization EC50
T2 construct: host or cells: PathHunter CHO-K1 SST2 cells
Method in brief: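 Four-parameter nonlinear fits of background-corrected luminescence (duplicate means) gave IC50s. NDCs were serially diluted 1:3 over 11 points from a 10 uM final top concentration and incubated 90 min at 37 C with human SST2 CHO-K1 cells plated 48 h earlier at 2500/well. Beta-Glo read-out developed 60 min at RT.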

T2 sequence (P30874 whole entry): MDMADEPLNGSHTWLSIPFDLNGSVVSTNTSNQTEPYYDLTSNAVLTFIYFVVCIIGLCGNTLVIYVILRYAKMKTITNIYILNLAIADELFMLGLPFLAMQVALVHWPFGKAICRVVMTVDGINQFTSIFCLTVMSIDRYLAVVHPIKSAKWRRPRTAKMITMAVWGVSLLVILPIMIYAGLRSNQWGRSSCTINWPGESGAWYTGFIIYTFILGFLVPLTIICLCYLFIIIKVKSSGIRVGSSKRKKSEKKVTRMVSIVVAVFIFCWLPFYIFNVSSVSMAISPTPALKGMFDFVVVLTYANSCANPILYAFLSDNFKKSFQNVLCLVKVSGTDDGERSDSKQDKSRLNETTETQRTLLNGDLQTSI
T1 sequence (P30874 whole entry): as above

Compound	pEC50 [1]	pEC50 [2]	pEC50 (SST2)
CC[C@H](C)[C@@H]([C@@H](CC(=O)N1CCC[C@H]1[C@H](OC)[C@@H](C)C(=O)N[C@H](C)[C@@H](O)c1ccccc1)OC)N(C)C(=O)[C@@H](NC(=O)[C@H](C(C)C)N(C)C(=O)OCc1ccc(NC(=O)[C@H](CCCNC(N)=O)NC(=O)[C@@H](NC(=O)c2cc(NCCOCCC(=O)NCCNc3ncc(-c4cc(C)cc(F)c4)c(N4CCC(N)CC4)c3-c3nc4ccc(Cl)cc4[nH]3)cc(C(=O)NCC(=O)S(N)(=O)=O)c2)C(C)C)cc1)C(C)C [Compound 188]	6.17	9.47	8.57
CC[C@H](C)[C@@H]([C@@H](CC(=O)N1CCC[C@H]1[C@H](OC)[C@@H](C)C(=O)N[C@H](C)[C@@H](O)c1ccccc1)OC)N(C)C(=O)[C@@H](NC(=O)[C@H](C(C)C)N(C)C(=O)OCc1ccc(NC(=O)[C@H](CCCNC(N)=O)NC(=O)[C@@H](NC(=O)c2cc(NCCOCCC(=O)NCCNc3ncc(-c4cc(C)cc(F)c4)c(N4CCC(N)CC4)c3-c3nc4ccc(Cl)cc4[nH]3)cc(C(=O)NCCN(CC(=O)O)CC(=O)O)c2)C(C)C)cc1)C(C)C [Compound 189]	5.66	9.40	8.12
CC[C@H](C)[C@@H]([C@@H](CC(=O)N1CCC[C@H]1[C@H](OC)[C@@H](C)C(=O)N[C@H](C)[C@@H](O)c1ccccc1)OC)N(C)C(=O)[C@@H](NC(=O)[C@H](C(C)C)N(C)C(=O)OCc1ccc(NC(=O)[C@H](CCCNC(N)=O)NC(=O)[C@@H](NC(=O)CCOCCNC(=O)[C@H](CCC(=O)O)NC(=O)[C@H](CCC(=O)O)NC(=O)CCOCCOCCOCCOCCC(=O)NCCNc2ncc(-c3cc(C)cc(F)c3)c(N3CCC(N)CC3)c2-c2nc3ccc(Cl)cc3[nH]2)C(C)C)cc1)C(C)C [Compound 190] (X3-EE[PEG1]V[Cit][PABC][NMeV]V[Dil][Dolaproine]-X2)	5.49	9.48	7.85
CC[C@H](C)[C@@H]([C@@H](CC(=O)N1CCC[C@H]1[C@H](OC)[C@@H](C)C(=O)N[C@H](C)[C@@H](O)c1ccccc1)OC)N(C)C(=O)[C@@H](NC(=O)[C@H](C(C)C)N(C)C(=O)OCc1ccc(NC(=O)[C@H](CCCNC(N)=O)NC(=O)[C@@H](NC(=O)CCOCCNC(=O)[C@H](CCC(=O)O)NC(=O)[C@H](CCC(N)=O)NC(=O)CCOCCC(=O)NCCNc2ncc(-c3cc(C)cc(F)c3)c(N3CCC(N)CC3)c2-c2nc3ccc(Cl)cc3[nH]2)C(C)C)cc1)C(C)C [Compound 191] (X4-QE[PEG1]V[Cit][PABC][NMeV]V[Dil][Dolaproine]-X2)	5.77	8.72	7.42
CC[C@H](C)[C@@H]([C@@H](CC(=O)N1CCC[C@H]1[C@H](OC)[C@@H](C)C(=O)N[C@H](C)[C@@H](O)c1ccccc1)OC)N(C)C(=O)[C@@H](NC(=O)[C@H](C(C)C)N(C)C(=O)OCc1ccc(NC(=O)[C@H](CCCNC(N)=O)NC(=O)[C@@H](NC(=O)CCCCCNC(=O)[C@H](CCC(=O)O)NC(=O)[C@H](CCC(N)=O)NC(=O)CCOCCOCCOCCOCCC(=O)NCCNc2ncc(-c3cc(C)cc(F)c3)c(N3CCC(N)CC3)c2-c2nc3ccc(Cl)cc3[nH]2)C(C)C)cc1)C(C)C [Compound 192] (X3-QE[Ahx]V[Cit][PABC][NMeV]V[Dil][Dolaproine]-X2)	5.89	9.43	7.92
CC[C@H](C)[C@@H]([C@@H](CC(=O)N1CCC[C@H]1[C@H](OC)[C@@H](C)C(=O)N[C@H](C)[C@@H](O)c1ccccc1)OC)N(C)C(=O)[C@@H](NC(=O)[C@H](C(C)C)N(C)C(=O)OCc1ccc(NC(=O)[C@H](CCCNC(N)=O)NC(=O)[C@@H](NC(=O)CCCCCCCCNc2ncc(-c3cc(C)cc(F)c3)c(N3CCC(N)CC3)c2-c2nc3ccc(Cl)cc3[nH]2)C(C)C)c(O[C@@H]2O[C@H](C(=O)NCC(=O)O)[C@@H](O)[C@H](O)[C@H]2O)c1)C(C)C [Compound 193]	7.49	9.06	8.42
CC[C@H](C)[C@@H]([C@@H](CC(=O)N1CCC[C@H]1[C@H](OC)[C@@H](C)C(=O)N[C@H](C)[C@@H](O)c1ccccc1)OC)N(C)C(=O)[C@H](C)NC(=O)[C@H](C(C)C)N(C)C(=O)OCc1ccc(NC(=O)[C@H](C)NC(=O)[C@@H](NC(=O)CCOCCNC(=O)CCNc2ncc(-c3cc(C)cc(F)c3)c(N3CCC(N)CC3)c2-c2nc3ccc(Cl)cc3[nH]2)C(C)C)c(O[C@@H]2O[C@H](C(=O)O)[C@@H](O)[C@H](O)[C@H]2O)c1 [Compound 194]	7.68	9.80	8.12
CC[C@H](C)[C@@H]([C@@H](CC(=O)N1CCC[C@H]1[C@H](OC)[C@@H](C)C(=O)N[C@H](C)[C@@H](O)c1ccccc1)OC)N(C)C(=O)[C@@H](NC(=O)[C@H](C(C)C)N(C)C(=O)OCc1ccc(NC(=O)[C@H](CCCNC(N)=O)NC(=O)[C@@H](NC(=O)CCOCCC(=O)NCCCNc2ncc(-c3cc(C)cc(F)c3)c(N3CCC(N)CC3)c2-c2nc3ccc(Cl)cc3[nH]2)C(C)C)c(O[C@@H]2O[C@H](C(=O)O)[C@@H](O)[C@H](O)[C@H]2O)c1)C(C)C [Compound 195]	8.07	9.46	8.39
CC[C@H](C)[C@@H]([C@@H](CC(=O)N1CCC[C@H]1[C@H](OC)[C@@H](C)C(=O)N[C@H](C)[C@@H](O)c1ccccc1)OC)N(C)C(=O)[C@@H](NC(=O)[C@H](C(C)C)N(C)C(=O)OCc1ccc(NC(=O)[C@H](CCCNC(N)=O)NC(=O)[C@@H](NC(=O)CCOCCOCCOCCOCCNC(=O)CCNc2ncc(-c3cc(C)cc(F)c3)c(N3CCC(N)CC3)c2-c2nc3ccc(Cl)cc3[nH]2)C(C)C)cc1)C(C)C [Compound 196] ({X1-βAla-PEG4}-V[Cit][PABC][NMeV]V[Dil][Dolaproine]-X2)	7.55	9.54	8.07
CC[C@H](C)[C@@H]([C@@H](CC(=O)N1CCC[C@H]1[C@H](OC)[C@@H](C)C(=O)N[C@H](C)[C@@H](O)c1ccccc1)OC)N(C)C(=O)[C@@H](NC(=O)[C@H](C(C)C)N(C)C(=O)OCc1ccc(NC(=O)[C@H](CCCNC(N)=O)NC(=O)[C@@H](NC(=O)CCOCCOCCOCCOCCC(=O)NCCCNc2ncc(-c3cc(C)cc(F)c3)c(N3CCC(N)CC3)c2-c2nc3ccc(Cl)cc3[nH]2)C(C)C)cc1)C(C)C [Compound 197]	7.92	9.57	8.19
CC[C@H](C)[C@@H]([C@@H](CC(=O)N1CCCC1[C@H](OC)[C@@H](C)C(=O)N[C@H](C)[C@@H](O)c1ccccc1)OC)N(C)C(=O)[C@@H](NC(=O)[C@H](C(C)C)N(C)C(=O)OCc1ccc(NC(=O)[C@H](CCCNC(N)=O)NC(=O)[C@@H](NC(=O)CCOCCC(=O)N(C)CC(=O)NCCNc2ncc(-c3cc(C)cc(F)c3)c(N3CCC(N)CC3)c2-c2nc3ccc(Cl)cc3[nH]2)C(C)C)c(OC)c1)C(C)C (stereo partly drawn) [Compound 198]	7.49	10.09	8.46
CC[C@H](C)[C@@H]([C@@H](CC(=O)N1CCC[C@H]1[C@H](OC)[C@@H](C)C(=O)N[C@H](C)[C@@H](O)c1ccccc1)OC)N(C)C(=O)[C@@H](NC(=O)[C@H](C(C)C)N(C)C(=O)OCc1ccc(NC(=O)[C@H](CCCNC(N)=O)NC(=O)[C@@H](NC(=O)CCOCCC(=O)N(C)CC(=O)NCCNc2ncc(-c3cc(C)cc(F)c3)c(N3CCC(N)CC3)c2-c2nc3ccc(Cl)cc3[nH]2)C(C)C)c(O)c1)C(C)C [Compound 199]	8.05	10.15	8.39
CC[C@H](C)[C@@H]([C@@H](CC(=O)N1CCC[C@H]1[C@H](OC)[C@@H](C)C(=O)N[C@H](C)[C@@H](O)c1ccccc1)OC)N(C)C(=O)[C@@H](NC(=O)[C@H](C(C)C)N(C)C(=O)OCc1ccc(NC(=O)[C@H](CCCNC(N)=O)NC(=O)[C@@H](NC(=O)C[C@@H](N)C(=O)NCCOCCC(=O)NCCNc2ncc(-c3cc(C)cc(F)c3)c(N3CCC(N)CC3)c2-c2nc3ccc(Cl)cc3[nH]2)C(C)C)c(O[C@@H](C)C(=O)O)c1)C(C)C [Compound 200]	7.64	9.74	8.41
CC[C@H](C)[C@@H]([C@@H](CC(=O)N1CCCC1[C@H](OC)[C@@H](C)C(=O)N[C@H](C)[C@@H](O)c1ccccc1)OC)N(C)C(=O)[C@@H](NC(=O)[C@H](C(C)C)N(C)C(=O)OCc1ccc(NC(=O)[C@H](CCCNC(N)=O)NC(=O)[C@@H](NC(=O)[C@H](Cc2c[nH]cn2)NC(=O)CCOCCC(=O)NCCNc2ncc(-c3cc(C)cc(F)c3)c(N3CCC(N)CC3)c2-c2nc3ccc(Cl)cc3[nH]2)C(C)C)c(OCC(=O)O)c1)C(C)C (stereo partly drawn) [Compound 202]	7.85	9.85	8.34
CC[C@H](C)[C@@H]([C@@H](CC(=O)N1CCC[C@H]1[C@H](OC)[C@@H](C)C(=O)N[C@H](C)[C@@H](O)c1ccccc1)OC)N(C)C(=O)[C@@H](NC(=O)[C@H](C(C)C)N(C)C(=O)OCc1ccc(NC(=O)[C@H](CCCNC(N)=O)NC(=O)[C@@H](NC(=O)[C@@H](NC(=O)CCOCCC(=O)NCCNc2ncc(-c3cc(C)cc(F)c3)c(N3CCC(N)CC3)c2-c2nc3ccc(Cl)cc3[nH]2)c2cnn(C)c2)C(C)C)c(OCC(=O)O)c1)C(C)C [Compound 203]	7.15	9.96	8.11
